The values that follow come from patent publication US20080286388A1, “Pharmaceutical Composition and Non Dependence Coffee Comprising Edible Carboxylic Acid and/or Its Acid Salts and Coffeine” (priority 2004, published 2008).

One experiment concerns person. Briefly: Tests for increase the ability of learning and memory. It is filed as in vivo, human. Conditions: three pieces of 600 mg, average of four tests before and after ingesting; for change in vivo at 1800 mg: Homo sapiens, po, read-out: Increase rate (%) of memory ability. How it is done: A person administrates see a random series of 100 numbers, typed by PC, for 10 minutes and memory it. Then recite and write down the memorized number series. To check the recited series with the original one to see how many numbers are correct. In each testing at least has 10 minutes interval, and repeat four times. […] Each kind of drugs testing is done in half day, morning or afternoon only. The testing results were counted by one correct number for one point. Make the average value of four times testing of before and after drug ingesting, respectively. The increase of learning or memory ability is calculated by following equation and listed in Table 14: Rate of increase of memory ability=[(average value of four time testing before ingesting drug)−(average value of four times testing after ingesting drug)]×100%/(average value of four time testing before ingesting drug)

The test system of a further experiment is mice. Briefly: Anti-delayed type allergy reaction, oxazolone ear inflammation. Conditions: drug 2.0 w/v % in oxazolone acetone solution, 10 μl on right ear, 24 hr; for Inhibiting rate (%) (adding 0.1 w/v % of drug): with 0.1 w/v % of caffeine; for Inhibiting rate (%) (non-caffeine added): without caffeine. Type of experiment: in vivo, mouse. The procedure:
The weights of testing mice are ranging from 20 g to 30 g. They are coated with 0.1 ml of oxazolone alcohol solution (0.5 w/v %) on the hair cleaned part of abdomen. […] After 24 hr, the mouse is killed by ether and punched a circle area of a diameter of 5.5 mm on both right and left ears in corresponding part by a puncher machine (portions of drug coated and the blank). The punched portions are weighed and the inflammation rates calculated. The control group are coated only with the oxazolone acetone solution (0.5 w/v %). The inflammation inhibiting rates of each drug are calculated by following equation: Inflammation inhibiting rate (%)=[(weight of drug-coated right ear)−(weight of non-drug-coated left ear)]×100%/(weight of non-drug-coated left ear)

Experiment [1] has as its system mouse's leaching cell solution (abdominal cavity cells), histamine release by 48/80 compound. Briefly: Drug inhibiting effect on histamine leaching from mouse abdominal cavity cells treated with 48/80 compound. Type of experiment: cell-based. Conditions: for inhibition at 100 µg/mL / IC50 / inhibition at 2 µg/mL / inhibition at 5 µg/mL / inhibition at 10 µg/mL / inhibition at 50 µg/mL / inhibition at 300 µg/mL / inhibition at 1000 µg/mL: Mus musculus; for IC50: calculated by figure, read-out: IC50 value (concentration for inhibiting rate of 50%). How it is done:
This is a comparative testing for drug depressing effect on the amount of leaching histamines when is treated with 48/80 (Sigma, St. MO, USA) compound.
(1). Preparation of Leaching Cell Solution from Mouse Body.
A mouse is killed and bloodletting. Then 10 ml of Locke's solution containing 0.1% bovine serum protein is injected into its abdominal cavity. After abdominal cavity being light massaged, the cavity is cut and the Locke's solution is removed. Cavity is washed with another 5 ml of Locke's solution, and this washed solution is added to the latter one. This combined solution is centrifuged at 600 rpm for 5 minutes. The sediments are washed with 5 ml of cool Locke's solution. Adding 3 ml of cold Locke's solution to the washed sediments, then a leached cell solution of abdominal cavity is obtained. (The composition of Locke's solution is: NaCL […], KCL 0.2%, CaCL2 0.15%, glucose 1.0%, in w/v, and the rest distillated water.)
(2). Drug Inhibiting Effect on the Amount of Leaching Histamines when Treated with 48/80 Compound.
1.0 ml of each of those solutions in last term is mixed with 0.3 ml of mouse's leaching cell solution and 0.5 ml of Locke's solution. This mixture is cultivated at 37° C. for 5 minutes. Then adding 0.2 ml of Locke's solution of 48/80 compound (1 mg/100 ml) and cultivated at 37° C. for 10 minutes. Then the reaction is stopped by cooling, and centrifuged at 2,500 rpm for 10 minutes. 1.7 ml of decanted solution and 0.3 ml of sediments are obtained.
0.1 ml of water and 0.2 ml of 100% trichloroacetic acid are added to the decanted solution. 1.5 ml of Locke's solution and 0.2 ml of 100% trichloroacetic acid are added to the sediments washed solution. They are cultivated at room temperature for 30 minutes. After cultivation, the mixtures are centrifuged at 3,000 rpm for 15 minutes, respectively. 0.35 ml of each of the former two solutions is sampled. In each sample, 1.65 ml of water, 0.4 ml of 1N NaOH and 0.1 ml of 0.5% OPT (o-phthalic aldehyde) in methanol are added and cultivated at room temperature for 4 minutes. The reaction is stopped by adding 0.2 ml of 2M citric acid. And finally, determine the amount of released histamines in the tested solution by fluorescence method. By the analysis, results of the inhibiting rate of histamines could be calculated.
Locke's solution is instead of each drug in control group, and instead of both drug and 48/80 compound solution in blank group.
The histamine releasing rate (A) can be calculated by following equation. […] Where (Hs) is the total amount of histamine in the decanted solution, and (Hr) is the total amount of histamine in the sediment. (A)=[(Hs)/{(Hs)+(Hr)}]×100%. Then the inhibiting rate is:
=100−[(A−A in blank group)/(A−A in control group)]×100%.

The mark [2] stands for this setting: testing drug 100 μg/ml, adding 5% of coffee extract, read-out: inhibiting rate (%) (adding 5% of coffee extract).
[3] abbreviates: testing drug 100 μg/ml, non adding coffee extract, read-out: Inhibiting rate (%) (non adding coffee extract).
[4] abbreviates: testing drug 100 μg/ml, adding 5% of coffee extract.
Setting [5] is: testing drug 100 μg/ml, non adding coffee extract.

≈ marks a conversion by molar mass, not a printed value. Counter-ions that a name gives are not always drawn. Like-named read-outs stand apart in the source and are kept apart here.

Take `O=C(O)/C=C/C(=O)O` [Fumaric acid]: the change in vivo at 1800 mg in the experiment on person came out at 300%. In the experiment with mice, the “Inhibiting rate (%) (adding 0.1 w/v % of drug)” value was determined as 100% and the “Inhibiting rate (%) (non-caffeine added)” value turned out to be 98%. In experiment [1] (setting [2]), the inhibition at 100 µg/mL was found to be 100%. In addition, the inhibition at 100 µg/mL in experiment [1] (setting [3]) was determined as 100%.

`O=C(O)C(O)C(O)C(=O)O` (stereo not drawn) [Tartaric acid]: the change in vivo at 1800 mg in the experiment with person amounted to 305%. In addition, in the experiment with mice, the “Inhibiting rate (%) (adding 0.1 w/v % of drug)” value is listed as 99% and the “Inhibiting rate (%) (non-caffeine added)” value is 97%. The inhibition at 100 µg/mL in experiment [1] (setting [2]) was determined as 100%. In addition, the inhibition at 100 µg/mL in experiment [1] (setting [3]) was 100%.

On to `O=C(O)CCC(=O)O` [Succinic acid], for which, in the experiment with person, the change in vivo at 1800 mg came out at 330%. Besides, the IC50 in experiment [1] (adding 5% of coffee extract) is 5.8 µg/mL (≈ 49.1 µM); in experiment [1] (non-adding coffee extract), 7 µg/mL (≈ 59.3 µM). In addition, the inhibition at 2 µg/mL in experiment [1] (dose 2 μg/ml, adding 5% of coffee extract, read-out: Inhibiting rate (%)) was determined as 24.9%; in experiment [1] (dose 2 μg/ml, non-adding coffee extract, read-out: Inhibiting rate (%)), 17.9%. The inhibition at 5 µg/mL was 43.6% in experiment [1] (dose 5 μg/ml, adding 5% of coffee extract, read-out: Inhibiting rate (%)) and 37.7% in experiment [1] (dose 5 μg/ml, non-adding coffee extract, read-out: Inhibiting rate (%)). The inhibition at 10 µg/mL in experiment [1] (dose 10 μg/ml, adding 5% of coffee extract, read-out: Inhibiting rate (%)) stood at 87.9%; in experiment [1] (dose 10 μg/ml, non-adding coffee extract, read-out: Inhibiting rate (%)), 84%. The inhibition at 50 µg/mL in experiment [1] (dose 50 μg/ml, adding 5% of coffee extract, read-out: Inhibiting rate (%)) was found to be 100%; in experiment [1] (dose 50 μg/ml, non-adding coffee extract, read-out: Inhibiting rate (%)), 100%. In addition, the inhibition at 100 µg/mL came out at 100% in experiment [1] (dose 100 μg/ml, adding 5% of coffee extract, read-out: Inhibiting rate (%)); 100% in experiment [1] (dose 100 μg/ml, non-adding coffee extract, read-out: Inhibiting rate (%)); 100% in experiment [1] (setting [2]); 100% in experiment [1] (setting [3]). Further, the inhibition at 300 µg/mL was 100% in experiment [1] (dose 300 μg/ml, adding 5% of coffee extract, read-out: Inhibiting rate (%)) and 100% in experiment [1] (dose 300 μg/ml, non-adding coffee extract, read-out: Inhibiting rate (%)). Besides, the inhibition at 1000 µg/mL in experiment [1] (dose 1000 μg/ml, adding 5% of coffee extract, read-out: Inhibiting rate (%)) worked out at 100%; in experiment [1] (dose 1000 μg/ml, non-adding coffee extract, read-out: Inhibiting rate (%)), 100%. Besides, the “Histamine releasing rate (%)” value in experiment [1] (dose 2 μg/ml, adding 5% of coffee extract) is listed as 70.5%; in experiment [1] (dose 2 μg/ml, non-adding coffee extract) it was 76.2%; in experiment [1] (dose 5 μg/ml, adding 5% of coffee extract) it was 55.3%; in experiment [1] (dose 5 μg/ml, non-adding coffee extract), 60.1%; in experiment [1] (dose 10 μg/ml, adding 5% of coffee extract), 19.3%; in experiment [1] (dose 10 μg/ml, non-adding coffee extract), 22.5%. Also, the “Histamine releasing rate (%)” value in experiment [1] (dose 50 μg/ml, adding 5% of coffee extract) came out at 9.1%; in experiment [1] (dose 50 μg/ml, non-adding coffee extract) it was 9.1%; in experiment [1] (dose 100 μg/ml, adding 5% of coffee extract) it was 9.3%; in experiment [1] (dose 100 μg/ml, non-adding coffee extract), 9.3%; in experiment [1] (dose 300 μg/ml, adding 5% of coffee extract), 9.4%; in experiment [1] (dose 300 μg/ml, non-adding coffee extract), 9.4%. Moreover, the “Histamine releasing rate (%)” value in experiment [1] (dose 1000 μg/ml, adding 5% of coffee extract) was 9.4%; in experiment [1] (dose 1000 μg/ml, non-adding coffee extract), 9.4%.

On to `CN(C)CCOC(c1ccccc1)c1ccccc1` [Diphenhydramine hydrochloride, reference compound], for which, in the experiment on mice, the “Inhibiting rate (%) (adding 0.1 w/v % of drug)” value was 20% and the “Inhibiting rate (%) (non-caffeine added)” value was 20%. Further, the inhibition at 100 µg/mL in experiment [1] (setting [2]) stood at 50.4%. The inhibition at 100 µg/mL in experiment [1] (setting [3]) is 32.1%.

As for `CCCCCCC(O)C(=O)O` (stereo not drawn) [α-hydroxy octanoic acid], the change in vivo at 1800 mg with person was determined as 300%. Besides, the inhibition at 100 µg/mL in experiment [1] (setting [2]) and in experiment [1] (setting [3]) was 100% throughout.

As to `CC(=O)O` [acetic acid], the change in vivo at 1800 mg in the experiment on person came out at 307%. Besides, the inhibition at 100 µg/mL in experiment [1] (setting [2]) and in experiment [1] (setting [3]) was 100% in each case.

As to `O=C(O)C=C(CC(=O)O)C(=O)O` [aconitic acid], the change in vivo at 1800 mg in the experiment with person worked out at 315%. Besides, the figures for the inhibition at 100 µg/mL in experiment [1] (setting [2]) and in experiment [1] (setting [3]) were 40% and 100%, respectively.

Turning to `O=C(O)CC(O)(CC(=O)O)C(=O)O` [Citric acid], the change in vivo at 1800 mg in the experiment with person was found to be 360%. Also, in the experiment on mice, the “Inhibiting rate (%) (adding 0.1 w/v % of drug)” value was 100%. Further, the “Inhibiting rate (%) (non-caffeine added)” value in the experiment on mice is recorded as 100%. Moreover, the inhibition at 100 µg/mL in experiment [1] (setting [2]) and in experiment [1] (setting [3]) was 100% in each case.

For the molecule `O=C(O)CCC(=O)C(=O)O` [keto-glutaric acid], the “Increase rate (%) of memory ability” value in the experiment with person came out at 321%. In experiment [1] (setting [4]), the “inhibiting rate (%) (adding 5% of coffee extract)” value was 100%. In addition, in experiment [1] (setting [5]), the “Inhibiting rate (%) (non adding coffee extract)” value stood at 100%.

Take `O=C1O[C@H](CO)[C@@H](O)[C@H](O)[C@H]1O` [gluconolactone]: the change in vivo at 1800 mg in the experiment on person worked out at 290%. In addition, the inhibition at 100 µg/mL in experiment [1] (setting [2]) and in experiment [1] (setting [3]) was 100% in each case.

For the molecule `O=C(O)CC(=O)C(=O)O` [oxalacetic acid], in the experiment with person, the change in vivo at 1800 mg came to 310%. The inhibition at 100 µg/mL in experiment [1] (setting [2]) and in experiment [1] (setting [3]) was 100% in each case.

Turning to `CCC(=O)O` [propionic acid], the change in vivo at 1800 mg in the experiment on person was found to be 296%. In addition, the inhibition at 100 µg/mL in experiment [1] (setting [2]) and in experiment [1] (setting [3]) was 100% throughout.

Regarding `CC(O)C(=O)O` (stereo not drawn) [Lactic acid], the change in vivo at 1800 mg with person amounted to 280%. Besides, in the experiment on mice, the “Inhibiting rate (%) (adding 0.1 w/v % of drug)” value was 98%. Further, in the experiment on mice, the “Inhibiting rate (%) (non-caffeine added)” value was determined as 97%. Moreover, the inhibition at 100 µg/mL in experiment [1] (setting [2]) and in experiment [1] (setting [3]) was 100% in each case.

Take `O=C(O)CO` [α-hydroxy ethanoic acid]: in the experiment on person, the “Increase rate (%) of memory ability” value stood at 300%. In experiment [1] (setting [4]), the “inhibiting rate (%) (adding 5% of coffee extract)” value is reported as 100%. Besides, the “Inhibiting rate (%) (non adding coffee extract)” value in experiment [1] (setting [5]) was 100%.
